Reference: ChEMBL document CHEMBL3217678 (Medchemcomm, 2011)
Calls of active or inactive are those of the source. No cut-off for these calls is given here.

How the values were obtained:
[1] = system: Mycobacterium tuberculosis; assay: Inhibition of Mycobacterium tuberculosis 20S proteasome open-gate mutant using Suc-LLVY-AMC as substrate at 1 mM preincubated for 30 mins followed by substrate addition measured after 90 mins by fluorescence assay
[2] = system: Mycobacterium tuberculosis; assay: Inhibition of Mycobacterium tuberculosis 20S proteasome open-gate mutant chymotrypsin like activity using Suc-LLVY-AMC as substrate assessed as decrease in enzyme velocity up to 100 uM
[3] = Selectivity for Mycobacterium tuberculosis 20S proteasome open-gate mutant over human 20S proteasome
[4] = Inhibition of Mycobacterium tuberculosis 20S proteasome open-gate mutant using Suc-LLVY-AMC as substrate preincubated for 30 mins followed by substrate addition measured after 90 mins by fluorescence assay

SMILES | inhibition [1] | inhibition [2] | Selectivity ratio [3] | IC50 [4]
CC(C)C[C@@H](NC(=O)[C@H](Cc1ccccc1)NC(=O)c1cnccn1)c1nsc(=O)o1 | inactive | inactive |  | 
COc1cccc(-c2nsc(=O)o2)c1 |  |  | > 1000 | 
CC(C)C[C@H](NC(=O)[C@H](Cc1ccccc1)NC(=O)c1cnccn1)B(O)O [BORTEZOMIB] |  |  |  | 24.9 nM
CC(C)C[C@H](NC(=O)[C@H](Cc1ccccc1)NC(=O)c1cnccn1)c1nsc(=O)o1 | inactive | inactive |  | 
